This note sets out measurements from US12503455B2, “Nucleic acid-binding photoprobes and uses thereof” (Arrakis Therapeutics, Inc., priority 2017, dated 2025).

SMILES strings stand for the structures.

What all share (format): binding
The test system of test [1] is Aptamer 21 spiked into polyA+ RNA extract. Nature of the test: Capture of Aptamer 21 from PolyA+ RNA extract. To be noted: versus warhead-only control ARK-2059. The method, then:
Total RNA was extracted from a pellet of 5×10^6 HepG2 cells using the ReliaPrep mini-prep kit (Promega) according to the manufacturer's standard protocol. The polyA+ RNA fraction was isolated from 50 μL sample of total RNA at 454 ng/μL using the magnetic mRNA isolation kit (New England Biolabs, cat #S1550) according to the manufacturer's standard protocol using 450 μL of lysis buffer and 100 μL of beads.
A sample of folded aptamer 21 RNA was spiked into a sample of polyA+ RNA extract at a final concentration of 1 nM aptamer 21 and 3 ng/μL polyA+ RNA. […]
Sequencing was performed on a single Illumina HiSeq 4000 lane with 150 bp paired-end reads using the standard manufacturer protocol.
Stitched reads were then processed with Cutadapt (http://dx.doi.org/10.14806/ej.17.1.200) with at least 5-nts of overlap and a maximum of 20% mismatches to simultaneously 1) define a unique 6-nt unique molecular identifier (UMI) in the correct adapter context (ATATAGGN6AGATCGG) (SEQ. […] UMIs were appended to read names, and reads were mapped the against the genome and transcriptome references (plus Aptamer 21) using the STAR aligner (http://dx.doi.org/10.1093/bioinformatics/bts635) with at most 10% mismatches. Groups of reads with identical or near-identical UMIs were then collapsed using the Directional Adjacency methods of UMI-tools (http://dx.doi.org/10.1101/gr.209601.116) with default parameters. […]

Test [2] relates to Aptamer 21. Nature of the test: Capture of Aptamer 21 with click-biotinylated probes. The following applies: Aptamer 21 or Aptamer 21-E. The method, then:
A 50 μL sample of 1 μM folded Aptamer 21 or Aptamer 21-E solution in folding buffer (20 mM TrisHCl pH 8, 100 mM KCl, 3 mM MgCl2) was added to a 0.5 μL aliquot of 0.5 mM ARK-729, ARK-2058, ARK-816, or ARK-2059 in DMSO or a DMSO-only control. The solution was incubated at 37° C. for 1 h and then irradiated with long wave UV light (˜365 nm) for 30 min in a UV crosslinker (Fisher Scientific). To this solution was added 0.5 μL of 10 mM DBCO-biotin (Click Chemistry Tools, cat. #A105) and 2 μL of 0.5 M EDTA pH 8 and then the solution was incubated at 65° C. for 2 h. The RNA was ethanol precipitated by adding 35 μL of water, 2 uL of 5 mg/mL glycogen, 10 μL 3 M NaOAc pH 5, and 250 μL ethanol, incubating at −80° C. for 1 h, centrifuging at 20000×g for 30 min, washing the pellet twice with 500 μL of 70% ethanol, and then air drying the pellet.
The RNA pellet was redissolved in 50 μL of 1× bind/wash buffer (20 mM TrisHCl pH 7, 100 mM KCl, 0.1% Tween-20). A 50 μL aliquot of MyOne Streptavidin C1 Dynabead slurry (Thermo) was captured on a magnet, washed twice with 50 μL of 1× bind/wash buffer, and then resuspended in 50 μL of the crosslinked RNA sample. The bead suspension was rotated at room temperature for 30 min and then washed twice with 100 μL of 1× bind/wash solution. […]

The subject of test [3] is PreQ1 RNA. Nature of the test: Reverse transcriptase pausing gel assay of photo-crosslinking to PreQ1 RNA. To be noted: 1 uM RNA, 9 uM PreQ1 probe, UV ~360 nm. The method, then:
(§1) A solution of RNA at 2 to 5 μM in nuclease-free water was heated to 95° C. for 3 min and then cooled on ice for 2 min. This solution was diluted with ½ volume of 3×RNA folding buffer (60 mM TrisHCl pH 8, 300 mM KCl, 9 mM MgCl2) and incubated at 37° C. for 20 min. Folding was carried out immediately before use of the RNA in each experiment. In cases where a mixture of RNA molecules was used in vitro the RNAs were folded separately and then combined prior to the probing experiment.
[…] The sample was then irradiated with long wave UV light (˜365 nm) for 30 min in a UV crosslinker (Fisher Scientific).
(§2) A 3.75 μL aliquot of 10 μM reverse transcription primer was added to the cross-linked RNA sample, which was then incubated for 5 min at 65° C. and then cooled on ice. The sample was then diluted to a final volume of 60 μL and final buffer concentration of 1× Protoscript-II buffer (New England Biolabs), 0.5 mM dNTPs, 10 mM DTT, 0.4 U/μL RNase Inhibitor (New England Biolabs), and 10 U/μL Protoscript-II (New England Biolabs). The reaction was incubated at 45° C. for 2 h, 65° C. for 20 min, and then 4° C.
The RNA was hydrolyzed by the addition of 4.8 μL of 2.5 M NaOH and heating at 95° C. for 5 min. […]
The cDNA pellet was resuspended in 12 μL of 1×TBE-urea sample loading buffer (Bio-Rad) and heated to 95° C. for 5 min. […] The gel fluorescence was imaged on an Azure c600 instrument.

For test [4], the system named is Aptamer 21. Nature of the test: Reverse transcriptase pausing (drop-off) gel assay of photo-crosslinking to Aptamer 21. The following applies: 1 uM RNA, 10 uM probe (9 uM PreQ1 probe), UV ~360 nm. The method, then:
as §1
Folded RNA (1 μM) was incubated with the photoaffinity probe (10 μM) in total 25 μL of buffer (20 mM TrisHCl pH 8, 100 mM KCl, 3 mM MgCl2) with 2.5% DMSO for 30 min at 37° C. to allow binding to come to equilibrium. The sample was then irradiated with long wave UV light (˜365 nm) for 30 min in a UV crosslinker (Fisher Scientific).
as §2
The RNA was hydrolyzed by the addition of 4.8 μL of 2.5 M NaOH and heating at 95° C. for 5 min. The reaction was quenched by the addition of 0.9 μL of acetic acid. The cDNA was precipitated by the addition of 6.6 μL of 3 M sodium acetate pH 5 and 181 μL ethanol, cooling to −80° C. for 1 h, and then centrifuging at 20,500×g at 4° C. for 30 min. The cDNA pellet was washed twice with 500 μL of 70% ethanol and then air dried for 5 min.
The cDNA pellet was resuspended in 12 μL of 1×TBE-urea sample loading buffer (Bio-Rad) and heated to 95° C. for 5 min. The sample was then run on a pre-cast 8.6×6.7 cm TBE-urea 10% PAGE gel (Bio-Rad) at 120 V until the lower bromophenol blue dye reached the bottom of the gel. The gel was stained with 1×SYBR-gold (Invitrogen) in 1×TBE buffer at room temperature for 20 min covered from light. The gel fluorescence was imaged on an Azure c600 instrument.

For `COC(=O)C1=C(COCc2cn(CCOCCOCCC(=O)NCCC3(CCN=[N+]=[N-])N=N3)nn2)NC(c2ccncc2)=NC1c1ccc(F)cc1Cl` (centres unmarked) [ARK-816], in test [1] (avidin capture, next-generation sequencing), the “enrichment analysis of Aptamer 21 from PolyA+ RNA extract” value is “Enrichment of the sites of probe-specific RT pausing on Aptamer 21 was observed”. Also, the “RT pausing ratio peaks on Aptamer 21 spiked into PolyA+ RNA extract” value in test [1] (extract from HepG2 cells) is “observed at the same positions as for isolated Aptamer 21”. Moreover, in test [2], the “RT pausing peaks after click-biotinylation and avidin bead enrichment” value is given as “RT pausing peaks specific to Aptamer 21”.
For `CC1(CCC(=O)NCCOCCOCCNCc2c[nH]c3nc(N)[nH]c(=O)c23)N=N1` [I-23], in test [3], the “cross-linking to PreQ1 RNA (RT pausing)” value is recorded as “does not show cross-linking”. In addition, in test [4], the “cross-linking with Apt21 RNA (RT pausing)” value is “does not show cross-linking”.
